Experimental data: US20040235086A1, “Detection of cellular contaminants in samples of non-living material” (priority 2001, published 2004)

Columns and labels:
[1] = tested on: Escherichia coli bacteria
Experimental: The presence of living cells, including bacterial cells, in a sample can be detected by addition of hydrogen peroxide which will be degraded by catalase activity present in the cells, which causes heat production.
Escherichia coli bacteria were grown on 37° Celsius in Liquid Broth. Samples of bacteria are taken when growth is in the log fase and is estimated to be around 4.10e8 bacteria/ml, which corresponds to around 600 000 bacteria per well.
A 30% (w/w) hydrogen peroxide solution from Sigma was used directly.
Measurements were performed using a microcalorimeter. The top well was provided with 1.5 μl of the bacterial solution in LB, while the bottom well contained 1.5 μl LB only.
When a steady baseline was obtained (10 min) 0.5 μl of the hydrogen peroxide solution was added to each of the wells.

Hepatocyte cells = assay: Microcalorimetric detection of heat production on uncoupling of oxidative phosphorylation in hepatocytes; assay type: cell-based
Experimental: Hepatocyte cells were grown on 37 degrees Celsius with 5% CO2, Rinsed with Versene, then loosened with EDTA-trypsine and washed with PBS. Concentration was 1,88. 10e7 cells/ml or about 28 000 cells in a well.
The uncoupler CCCF was dissolved in DMSO to a stock concentration of 100 mM, the diluted to 10 mM again in DMSO, and a final working concentration of 400 μM was diluted in H2O.
A sample of hepatocytes was introduced in the adjoining recipients (hereinafter referred to as top and bottom well) of a microcalorimeter. The thermopile, which is located between the two recipients allows the measurement of a minute temperature difference between the samples in each recipient by measuring a voltage difference. Sensitivity was determined to be 15 mV/K (10.7 V/W). The following procedure was used:
adding of 1.5 μl of hepatocyte solution was added to the top and bottom well of the microcalorimeter
0.5 μl of a 100 μM solution of uncoupler was added to the bottom well, while the same volume of the buffer solution was added to the top well
At its maximum (reached after 10 min), the voltage difference between the two wells was recorded. From this value, the temperature difference and the heat production difference could be determined.

OO [hydrogen peroxide]
maximum temperature difference ([1]; 0.5 μl of 30% (w/w) hydrogen peroxide added to 1.5 μl E. coli in LB (around 600 000 bacteria per well) vs LB only): 400 mK | total enthalpy change ([1]; calculated from Tmax=ΔH/2C, heat capacity 10 mJ/K after addition of hydrogen peroxide): 80 mJ

N#CC(C#N)=NNc1cccc(Cl)c1 [CCCF, carbonylcyanide-3-chlorophenylhydrazone]
maximum voltage difference between the two wells (Hepatocyte cells; 0.5 μl of 100 μM uncoupler solution added to 1.5 μl hepatocyte solution (about 28 000 cells/well), maximum reached after 10 min, vs buffer well): 800 μV | heat production difference per cell (Hepatocyte cells; hepatocytes, based on number of cells added to each well): 3 nW | temperature difference (voltage difference divided by sensitivity of the microcalorimeter) (Hepatocyte cells; hepatocytes, uncoupler well vs buffer well, sensitivity 15 mV/K): 50 mK
